According to US8354374B2, “Peptides having pharmacological activity for treating disorders associated with altered cell migration, such as cancer” (Pharmaphelix S.R.L., priority 2006, dated 2013):
Values belong to the compound of their own block, whether it stands above or below them. Square brackets hold non-standard residues; d marks the D form. Peptide text beside a SMILES is read from it. ξ: configuration not given here. ξαMeF = CC(N)(Cc1ccccc1)C(=O)O; Aib = CC(C)(N)C(=O)O

How the values were obtained:
[1] = system: HUVEC cells (Human Umbilical Vein Endothelial Cells); test: In vitro neo-angiogenesis: VEGF-dependent tubule formation on matrigel; format: cell-based
Experimental: The in vitro neo-angiogenesis tests were conducted by exploiting the ability of endothelial cells to form, in the presence of pro-angiogenic factors, cords which extend to form a network of microtubules on a layer of polymerised matrigel. For this type of assay, 5×10^4 HUVEC cells (Human Umbilical Vein Endothelial Cells) per well were plated in 24-well plates, in which 300 μl of matrigel was left to polymerise in the presence of 40 ng/ml of VEGF (Vascular Endothelial Growth Factor), used as pro-angiogenic agent, and the peptides indicated, at different concentrations. Tubule formation was evaluated after 18 hours' incubation at 37° C. in 5% CO2, by counting the number of tubular structures in at least 5 fields, chosen at random, with an inverted microscope. The effect of the peptides on VEGF-dependent tubule-forming activity is calculated as a percentage of the number of tubular structures counted in the presence of VEGF (taken as 100%). The data (Table 9) represent the average of two experiments conducted in duplicate. The antagonistic effect of PICM1 and PICM57 on neo-angiogenesis in vitro is dose-dependent. This effect begins at concentrations of aM and reaches the peak action at a concentration of pM (20% of the number of tubular structures counted); 50% of the maximum effect is reached at concentrations of fM. The anti-angiogenic effect exerted by 50 nM of endostatin and the low inhibitory effect exerted by metastin[45-54] are shown by way of comparison.

[2] = system: human fibrosarcoma HT1080 cells; test: Directional migration towards 10% FBS in Boyden chamber; format: cell-based
Experimental: The effect of PICM57 described in example 3 on the cell migration of human fibrosarcoma HT1080 cells was tested. A Boyden chamber equipped with polycarbonate filters, having pores with a diameter of 8 μm (Nucleopore), free of polyvinylpyrrolidone and coated with 5 μg/ml of vitronectin (Promega), was used, as reported in the literature (Carriero et al., Cancer Res. 59, 5307, 1999). 3×10^4 cells, in serum-free DMEM (Dulbecco Modified Eagle Medium), were deposited in the upper compartment of the Boyden chamber. The lower chamber was packed with DMEM containing 10% FBS (Foetal Bovine Serum) as a source of chemotactics, in the presence of increasing concentrations of PICM57. The cells were incubated for 4 h at 37° C. in humidified air containing 5% CO2. After incubation, the cells adhering to the upper surface of the filter were mechanically removed, and the migrated cells adhering to the lower surface of the filter were fixed in ethanol, stained with haematoxylin, and counted at 200× in 10 fields/filter chosen at random. The directional migration in response to FBS in the absence of PICM57 was taken as 100% and the effect of PICM57 on cell migration was evaluated in percentage terms. The data represent the average of three independent experiments conducted in duplicate. The antagonistic effect of PICM57 on migration of HT1080 cells towards FBS is dose-dependent (Table 2). It begins at concentrations of 1 aM, reaches 50% of its maximum value at concentrations of 1 fM, and reaches the maximum effect at concentrations of 10 fM (66% of inhibition).
The mobility induced by FBS in the presence of Metastin[45-54] was evaluated under the same experimental conditions (Table 3). […]

[3] = system: human fibrosarcoma HT1080 cells in CD1 nude mice; test: Anti-metastatic effect in vivo: pulmonary metastasis of HT1080 cells injected into the caudal vein; settings: 3 mg/Kg every 48 h
Experimental: The anti-metastatic power of PICM1 was evaluated on an animal model. 2×10^6 human fibrosarcoma HT1080 cells, which cause pulmonary metastasis in the experimental model (Schweinitz A, et al., J. Biol. Chem. 279:33613, 2004), were suspended in saline solution and injected into the caudal vein of twenty 7-week-old CD1 nude mice. 24 hours after the inoculation of the tumour cells, groups of 10 animals were treated with a slow injection of 3 mg/Kg of PICM1, dissolved in 100 μl of saline solution, every 48 h, with the animal immobilised. The 10 control animals received the same injection treatment, but with the saline solution only. Each animal was weighed and inspected for dyspnoea every day. […] All the treated and control animals were sacrificed, and an autopsy was conducted. The lungs, liver, kidneys, spleen and heart were subjected to macroscopic and microscopic analysis.

[4] = system: human fibrosarcoma HT1080 cells; test: In vitro cell invasion through matrigel towards 10% FBS (Boyden chamber); format: cell-based
Experimental: The in vitro cell invasion tests were conducted with Boyden chambers, using polyvinylpyrrolidone free filters, having pores with a diameter of 8 μm (Nucleopore), coated with 70 μg/filter of matrigel and DMEM containing 10% FBS as chemoattractant (Silvestri et al. Int. J. Cancer 102, 562-571, 2002). Human fibrosarcoma HT1080 cells (2×10^5 cells/sample) were deposited in the upper compartment of the chamber in a serum-free culture medium. The lower compartment of the chamber contained DMEM with the addition of 10% FBS as chemotactic source, and the peptides to be assayed, tested at the concentration indicated. The chambers, thus assembled, were placed at 37° C. in a humidified environment containing 5% CO2. After 18 hrs, the cells which had crossed the matrigel and adhered to the lower surface of the filters were fixed, stained and counted. The data represent the average of two independent experiments conducted in duplicate. The results, set out in Table 8, are expressed as the percentage of cells that invade the matrigel in the presence of FBS, but in the absence of peptide (100%). The inhibiting effect of PICM1 and PICM57 on the invasiveness of HT1080 cells is dose-dependent.

[5] = system: Cell lines of human or murine origin, derived from various tissues; test: Directional migration towards 10% FBS, all the cell lines tested; format: cell-based; settings: 100 pM PICM1
Experimental: Cell lines of human or murine origin, derived from various tissues, were subjected to in vitro directional migration tests employing Boyden chambers as described in example 4, and using 10% FBS as chemotactic source, in the presence/absence of 100 pM PICM1. Directional migration in response to FBS in the absence of PICM1 was taken as 100%, and the effect of PICM1 on cell migration was evaluated as a percentage of said value. The data represent the average of two independent experiments conducted in duplicate. In all the cell lines tested, an inhibiting effect of PICM1 on cell migration was observed (Table 4). Although the extent of the inhibition differs between the cell lines used, it was never less than 50%, and was also observed in murine melanoma B16 cells, which are unresponsive to Metastin (Ohtaki, T., et al. (2001) Nature 411, 613-617).

[6] = system: rat; settings: acute
[7] = system: mouse; settings: acute
[8] = in vivo; settings: mouse
[9] = in vivo; settings: rat
[10] = system: murine melanoma B16 cells; settings: Ohtaki et al. 2001; cited from earlier work
[11] = molecular target: T1, FPR (Homo sapiens, UniProt P21462); settings: cells pre-incubated with 10 μM peptide
T1 sequence (P21462 1-350): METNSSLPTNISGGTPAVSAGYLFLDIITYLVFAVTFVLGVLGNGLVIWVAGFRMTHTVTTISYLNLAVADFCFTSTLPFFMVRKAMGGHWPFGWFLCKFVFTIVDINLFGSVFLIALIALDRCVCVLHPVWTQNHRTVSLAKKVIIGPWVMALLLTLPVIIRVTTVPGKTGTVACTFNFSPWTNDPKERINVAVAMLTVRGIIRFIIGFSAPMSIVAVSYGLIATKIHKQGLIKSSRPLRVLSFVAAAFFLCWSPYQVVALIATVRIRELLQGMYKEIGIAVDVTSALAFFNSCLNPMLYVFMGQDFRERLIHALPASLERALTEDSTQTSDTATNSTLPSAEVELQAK

[12] = 10 pM peptide, 10% FBS alone = 100%
[13] = 10 nM peptide, 10% FBS alone = 100%
[14] = 1 aM peptide, migration toward 10% FBS alone = 100%
[15] = 10 aM peptide, 10% FBS alone = 100%
[16] = 10 fM peptide, 10% FBS alone = 100%
[17] = injection, sacrifice after 22 days

Compound: CC(=O)N[C@@H](CCCNC(=N)N)C(=O)N[C@@H](CCC(=O)O)C(=O)N[C@@H](CCCNC(=N)N)C(=O)N[C@@H](Cc1ccccc1)C(N)=O [PICM1, Ac-Arg-Glu-Arg-Phe-NH2] (Ac-RERF-NH2)
- concentration at which 50% of the maximum effect on neo-angiogenesis is reached [1]: fM
- VEGF-dependent tubule-forming activity (%) ([1]; 10 pM peptide): 30%
- VEGF-dependent tubule-forming activity (%) ([1]; 10 nM peptide): 22%
- VEGF-dependent tubule-forming activity (%) ([1]; 1 aM peptide, 40 ng/ml VEGF = 100%): 104%
- VEGF-dependent tubule-forming activity (%) ([1]; 10 aM peptide): 77%
- VEGF-dependent tubule-forming activity (%) ([1]; 10 fM peptide): 65%
- tubular structures at peak action (% of VEGF-only control) ([1]; peak action at a concentration of pM): 20%
- Cell Migration towards 10% FBS (%) [2, 12]: 46%
- Cell Migration towards 10% FBS (%) ([2]; 100 pM peptide, 10% FBS alone = 100%): 34%
- Cell Migration towards 10% FBS (%) [2, 13]: 35%
- Cell Migration towards 10% FBS (%) [2, 14]: 99%
- Cell Migration towards 10% FBS (%) [2, 15]: 70%
- Cell Migration towards 10% FBS (%) [2, 16]: 56%
- extensive sub-pleural neoformations on macroscopic analysis of the lungs [3, 17]: not observed in the treated animals
- pulmonary metastasis on microscopic observation [3, 17]: did not exhibit the presence of metastasis
- histo-morphological alterations of lungs, liver, kidneys, spleen and heart ([3]; autopsy): None of the organs examined, of the controlled or treated animals, presented any histo-morphological alterations, with the exception of the lungs
- Cell invasion towards 10% FBS (%) ([4]; 10 pM peptide): 55%
- Cell invasion towards 10% FBS (%) ([4]; 10 nM peptide): 44%
- Cell invasion towards 10% FBS (%) ([4]; 1 aM peptide, FBS without peptide = 100%): 100%
- Cell invasion towards 10% FBS (%) ([4]; 10 aM peptide): 101%
- Cell invasion towards 10% FBS (%) ([4]; 10 fM peptide): 62%
- extent of the inhibition of cell migration [5]: ≥ 50%

Compound: CC(=O)N[C@@H](CCCNC(=N)N)C(=O)NC(C)(C)C(=O)N[C@@H](CCCNC(=N)N)C(=O)NC(C)(Cc1ccccc1)C(N)=O (stereo partly drawn) [PICM57, Ac-Arg-Aib-Arg-α(Me)Phe-NH2] (Ac-R[Aib]R[ξαMeF]-NH2)
- dose with all animals alive [6]: 58 mg/kg
- dose with all animals dead [6]: 70 mg/kg
- dose with all animals alive [7]: 28 mg/kg
- dose with all animals dead [7]: 32 mg/kg
- LD50 [8]: 30 mg/kg
- LD50 [9]: 65 mg/kg

Compound: Endostatin [reference compound]
- VEGF-dependent tubule-forming activity (%) ([1]; 10 nM peptide): 30%

Compound: Metastin
- responsiveness of B16 cells [10]: unresponsive

- reduction of binding of fluorescinated formyl-Nle-Leu-Phe-Nle-Tyr-Lys to the cell surface [11]: does not modify
Compound: Metastin[45-54] [reference compound]
- VEGF-dependent tubule-forming activity (%) ([1]; 10 pM peptide): 63%
- VEGF-dependent tubule-forming activity (%) ([1]; 10 nM peptide): 65%
- VEGF-dependent tubule-forming activity (%) ([1]; 10 fM peptide): 90%
- Cell Migration towards 10% FBS (%) [2, 12]: 53%
- concentration needed for comparable inhibition of migration, times greater than PICM57 ([2]; 10 nM Metastin[45-54] vs. 10 fM PICM57): 1,000 times
- Cell Migration towards 10% FBS (%) [2, 13]: 56%
- Cell Migration towards 10% FBS (%) [2, 14]: 100%
- Cell Migration towards 10% FBS (%) [2, 15]: 83%
- Cell Migration towards 10% FBS (%) [2, 16]: 73%
